Results from patent US20200017496A1 (priority 2017, published 2020).
Like-named read-outs stand apart in the source and are kept apart here.

What was measured:
[1] = system: Citrobacter freundii (CFR) isolates; assay: MIC of compounds alone and combined with antibacterials, broth microdilution (CLSI); format: cell-based; conditions: for MIC: Citrobacter freundii
Summary of the method: (§1)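 Log-phase bacteria at a final 5·10^5 CFU/mL in cation-adjusted Mueller-Hinton broth were incubated 16-20 h at 35° C in ambient air with compound alone or with an antibacterial. MIC was the lowest concentration preventing visible growth; combination MIC of the antibacterial was read at each compound concentration.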

[2] = system: Klebsiella pneumoniae (KPN) isolates; assay: as above; format: cell-based; conditions: for MIC ATB in combination: AF1 @ 4 μg/mL; for MIC: Klebsiella pneumoniae
Summary of the method: as §1

[3] = strain CFR UFR253, antibacterial combined with AF1 @ 4 μg/mL
[4] = strain CFR UFR254, antibacterial combined with AF1 @ 4 μg/mL

CO/N=C(\C(=O)N[C@@H]1C(=O)N2C(C(=O)O)=C(COC(N)=O)CS[C@H]12)c1ccco1 [FUR, Cefuroxime]
32 µg/mL: MIC ([1]; ATB alone, strain CFR UFR253 (TEM-1, SHV-12, OXA-48), read-out: MIC) | MIC ([1]; ATB alone, strain CFR UFR254 (VEB-1b, OXA-48, qnrA), read-out: MIC) | MIC ATB in combination ([2]; KPN 140513) | MIC ATB in combination ([2]; KPN 260252) | MIC ATB in combination ([2]; KPN UFR27) | MIC ATB in combination ([2]; KPN UFR66) | MIC ATB in combination ([2]; KPN UFR67) | MIC ATB in combination ([2]; KPN UFR77) | MIC ATB in combination ([2]; KPN UFR79) | MIC ATB in combination ([2]; KPN UFR81) | MIC ([2]; strain KPN 700603 (SHV-18, OXA-2), ATB alone, read-out: MIC) | MIC ([2]; strain KPN UFR22_O (TEM-1, SHV-1, OXA-48), ATB alone, read-out: MIC) | MIC ([2]; strain KPN UFR80 (SHV-11, DHA-1, OXA-1), ATB alone, read-out: MIC)
4 µg/mL: MIC ATB in combination [1, 3] | MIC ATB in combination ([2]; KPN 110376) | MIC ATB in combination ([2]; KPN 160143) | MIC ATB in combination ([2]; KPN 190425) | MIC ATB in combination ([2]; KPN 190551) | MIC ATB in combination ([2]; KPN BAA-1898) | MIC ATB in combination ([2]; KPN UFR23) | MIC ATB in combination ([2]; KPN UFR25) | MIC ATB in combination ([2]; KPN UFR28) | MIC ATB in combination ([2]; KPN UFR216) | MIC ATB in combination ([2]; KPN UFR221)
64 µg/mL: MIC ATB in combination ([2]; KPN UFR222) | MIC ATB in combination ([2]; KPN UFR227O) | MIC ([2]; strain KPN UFR77 (CMY-2), ATB alone, read-out: MIC)
8 µg/mL: MIC ATB in combination ([1]; CFR UFR10, AF1 @ 4 μg/mL) | MIC ATB in combination ([1]; CFR UFR248, AF1 @ 4 μg/mL) | MIC ATB in combination ([1]; CFR UFR249, AF1 @ 4 μg/mL) | MIC ATB in combination ([1]; CFR UFR250, AF1 @ 4 μg/mL) | MIC ATB in combination ([2]; KPN 131119) | MIC ATB in combination ([2]; KPN 260251) | MIC ATB in combination ([2]; KPN LIB) | MIC ATB in combination ([2]; KPN UFR22_O) | MIC ATB in combination ([2]; KPN UFR68) | MIC ATB in combination ([2]; KPN UFR219) | MIC ([2]; strain KPN UFR23 (TEM-1, SHV-1, OXA-48), ATB alone, read-out: MIC)
> 512 µg/mL: MIC ([2]; BAA1898, strain KPN BAA-1898 (TEM-1, SHV-11, SHV-12, KPC-2), ATB alone, read-out: MIC) | MIC ([2]; strain KPN 6299 (TEM-1, SHV-11, OXA-163), ATB alone, read-out: MIC)
16 µg/mL: MIC ATB in combination ([1]; CFR UFR146, AF1 @ 4 μg/mL) | MIC ATB in combination ([2]; KPN 6299) | MIC ATB in combination ([2]; KPN 190128) | MIC ATB in combination ([2]; KPN 190270) | MIC ATB in combination ([2]; KPN 270077) | MIC ATB in combination ([2]; KPN 700603) | MIC ATB in combination ([2]; KPN ARA) | MIC ATB in combination ([2]; KPN UFR24) | MIC ATB in combination ([2]; KPN UFR65) | MIC ATB in combination ([2]; KPN UFR80) | MIC ATB in combination ([2]; KPN UFR215) | MIC ATB in combination ([2]; KPN UFR220) | MIC ([2]; strain KPN LIB (SHV-11, OXA-48), ATB alone, read-out: MIC)
128 µg/mL: MIC ([2]; strain KPN UFR24 (TEM-1, SHV-2, SHV-11, OXA-1, OXA-48, OXA-47), ATB alone, read-out: MIC)
> 256 µg/mL: MIC [1] | MIC ([1]; strain CFR UFR10 (OXA-48), ATB alone, read-out: MIC) | MIC ([1]; strain CFR UFR11 (TEM-1, OXA-1, OXA-48), ATB alone, read-out: MIC) | MIC ([1]; strain CFR UFR83 (TEM-3, AmpC), ATB alone, read-out: MIC) | MIC ([1]; strain CFR UFR248 (CTX-M-15), ATB alone, read-out: MIC) | MIC ([1]; strain CFR UFR249 (TEM-1, CTX-M-15), ATB alone, read-out: MIC) | MIC ([1]; strain CFR UFR250 (TEM-1, SHV-28, CTX-M-15), ATB alone, read-out: MIC) | MIC [2]
>128 µg/mL: MIC ATB in combination ([1]; CFR UFR11, AF1 @ 4 μg/mL) | MIC ATB in combination ([1]; CFR UFR83, AF1 @ 4 μg/mL) | MIC ATB in combination ([2]; KPN UFR76) | MIC ATB in combination ([2]; KPN UFR78)
2 µg/mL: MIC ATB in combination [1, 4] | MIC ATB in combination ([2]; KPN 200047) | MIC ATB in combination ([2]; KPN 200327) | MIC ATB in combination ([2]; KPN 260376) | MIC ATB in combination ([2]; KPN UFR217)

COCC1=C(C(=O)O)N2C(=O)[C@@H](NC(=O)/C(=N\OC)c3csc(N)n3)[C@H]2SC1 [POD, Cefpodoxime]
16 µg/mL: MIC ATB in combination ([1]; CFR UFR11, AF1 @ 4 μg/mL)
<=0.25 μg/mL: MIC ATB in combination ([1]; CFR UFR10, AF1 @ 4 μg/mL) | MIC ATB in combination ([1]; CFR UFR249, AF1 @ 4 μg/mL) | MIC ATB in combination [1, 3] | MIC ATB in combination [1, 4] | MIC ATB in combination ([2]; KPN 6299) | MIC ATB in combination ([2]; KPN 110376) | MIC ATB in combination ([2]; KPN 131119) | MIC ATB in combination ([2]; KPN 160143) | MIC ATB in combination ([2]; KPN 190425) | MIC ATB in combination ([2]; KPN 190551) | MIC ATB in combination ([2]; KPN 200047) | MIC ATB in combination ([2]; KPN 200327) | MIC ATB in combination ([2]; KPN 260251) | MIC ATB in combination ([2]; KPN 260376) | MIC ATB in combination ([2]; KPN ARA) | MIC ATB in combination ([2]; KPN LIB) | MIC ATB in combination ([2]; KPN UFR22_O) | MIC ATB in combination ([2]; KPN UFR23) | MIC ATB in combination ([2]; KPN UFR25) | MIC ATB in combination ([2]; KPN UFR28) | MIC ATB in combination ([2]; KPN UFR216) | MIC ATB in combination ([2]; KPN UFR217) | MIC ATB in combination ([2]; KPN UFR219)
1 µg/mL: MIC ATB in combination ([1]; CFR UFR146, AF1 @ 4 μg/mL) | MIC ATB in combination ([1]; CFR UFR248, AF1 @ 4 μg/mL) | MIC ATB in combination ([2]; KPN UFR24) | MIC ATB in combination ([2]; KPN UFR68) | MIC ATB in combination ([2]; KPN UFR221)
0.5 µg/mL: MIC ATB in combination ([1]; CFR UFR250, AF1 @ 4 μg/mL) | MIC ATB in combination ([2]; KPN 190128) | MIC ATB in combination ([2]; KPN 190270) | MIC ATB in combination ([2]; KPN 270077) | MIC ATB in combination ([2]; KPN 700603) | MIC ATB in combination ([2]; KPN BAA-1898) | MIC ATB in combination ([2]; KPN UFR65) | MIC ATB in combination ([2]; KPN UFR80) | MIC ATB in combination ([2]; KPN UFR215)
128 µg/mL: MIC ATB in combination ([2]; KPN UFR78)
2 µg/mL: MIC ATB in combination ([2]; KPN UFR66)
>128 µg/mL: MIC ATB in combination ([1]; CFR UFR83, AF1 @ 4 μg/mL) | MIC ATB in combination ([2]; KPN UFR76)
8 µg/mL: MIC ATB in combination ([2]; KPN UFR222)
4 µg/mL: MIC ATB in combination ([2]; KPN 140513) | MIC ATB in combination ([2]; KPN 260252) | MIC ATB in combination ([2]; KPN UFR27) | MIC ATB in combination ([2]; KPN UFR67) | MIC ATB in combination ([2]; KPN UFR77) | MIC ATB in combination ([2]; KPN UFR79) | MIC ATB in combination ([2]; KPN UFR81) | MIC ATB in combination ([2]; KPN UFR220) | MIC ATB in combination ([2]; KPN UFR227O)
